# Results from ChEMBL document CHEMBL4411303, “Synthesis of tetrazole derivatives bearing pyrrolidine scaffold and evaluation of their antifungal activity against Candida albicans” (Eur J Med Chem, 2019).
# pIC50: −log10 of the molar value. The source made the active and inactive calls. The calls are words filed in the database; no cut-off is given here.
# Tests used:
# Candida albicans [1] = assay: Antifungal activity against Candida albicans ATCC 90028 assessed as planktonic growth inhibition at 2.59 uM after 48 hrs by M27-A3 protocol based method relative to control; assay type: functional; conditions: ATCC 90028, 48 h, read-out: GI
# [2] = Toxicity in Galleria mellonella larvae assessed as cocoon formation at 41.47 uM measured after 48 hrs (reference value: 85 +/- 5%)
# Candida albicans [3] = assay: Antifungal activity against Candida albicans ATCC 90028 assessed as planktonic growth inhibition at 20.73 uM after 48 hrs by M27-A3 protocol based method relative to control; assay type: functional; conditions: ATCC 90028, 48 h, read-out: GI
# Candida albicans [4] = assay: Antifungal activity against Candida albicans ATCC 90028 assessed as reduction in cell growth after 48 to 72 hrs in presence of ergosterol by M27-A3 protocol based method; assay type: functional
# [5] = Toxicity in Galleria mellonella larvae assessed as survival rate at 41.47 uM measured after 120 hrs (reference value: 100%)
# Candida albicans [6] = assay: Antifungal activity against Candida albicans ATCC 90028 assessed as planktonic growth inhibition at 1.3 uM after 48 hrs by M27-A3 protocol based method relative to control; assay type: functional; conditions: ATCC 90028, 48 h, read-out: GI
# Candida albicans [7] = assay: Antifungal activity against Candida albicans ATCC 90028 assessed as planktonic growth inhibition at 41.47 uM after 48 hrs by M27-A3 protocol based method relative to control; assay type: functional; conditions: ATCC 90028, 48 h, read-out: GI
# Candida albicans [8] = assay: Antifungal activity against Candida albicans ATCC 90028 assessed as planktonic growth inhibition at 5.18 uM after 48 hrs by M27-A3 protocol based method relative to control; assay type: functional; conditions: ATCC 90028, 48 h, read-out: GI
# Candida albicans [9] = assay: Antibiofilm activity against Candida albicans ATCC 90028 assessed as inhibition of biofilm formation after 24 hrs by XTT assay; assay type: functional, organism-based; conditions: ATCC 90028, 24 h
# [10] = Toxicity in Galleria mellonella larvae assessed as movement melanization at 41.47 uM measured after 18 hrs (reference value: 0%)
# Candida albicans [11] = assay: Antifungal activity against Candida albicans ATCC 90028 assessed as planktonic growth inhibition at 0.16 uM after 48 hrs by M27-A3 protocol based method relative to control; assay type: functional; conditions: ATCC 90028, 48 h, read-out: GI
# Candida albicans [12] = assay: Antifungal activity against Candida albicans ATCC 90028 assessed as planktonic growth inhibition at 0.65 uM after 48 hrs by M27-A3 protocol based method relative to control; assay type: functional; conditions: ATCC 90028, 48 h, read-out: GI
# Candida albicans [13] = assay: Antifungal activity against Candida albicans ATCC 90028 assessed as planktonic growth inhibition at 0.32 uM after 48 hrs by M27-A3 protocol based method relative to control; assay type: functional; conditions: ATCC 90028, 48 h, read-out: GI
# [14] = Toxicity in Galleria mellonella larvae assessed as cocoon formation at 41.47 uM measured after 18 hrs (reference value: 60 +/- 20%)
# Candida albicans [15] = assay: Inhibition of Candida albicans ATCC 90028 cell adhesion to human TR146 cells at reduction in cell adherence at 41.47 uM relative to control; assay type: functional; conditions: ATCC 90028, TR146
# Candida albicans [16] = assay: Antifungal activity against Candida albicans ATCC 90028 assessed as planktonic growth inhibition at 0.08 uM after 48 hrs by M27-A3 protocol based method relative to control; assay type: functional; conditions: ATCC 90028, 48 h, read-out: GI
# [17] = Toxicity in Galleria mellonella larvae assessed as movement melanization at 41.47 uM measured after 128 hrs (reference value: 0%)
# [18] = Toxicity in Galleria mellonella larvae assessed as survival rate at 41.47 uM measured after 48 hrs (reference value: 100%)
# [19] = Toxicity in Galleria mellonella larvae assessed as survival rate at 41.47 uM measured after 18 hrs (reference value: 100%)
# Candida albicans [20] = assay: Fungicidal activity against Candida albicans ATCC 90028 assessed as log reduction in fungal load incubated for 48 hrs followed by replating on sabouraud dextrose agar plate and measured after 48 hrs; assay type: functional
# Candida albicans [21] = assay: Cell cycle arrest in Candida albicans ATCC 90028 assessed as accumulation at G0/G1-phase by propidium iodide staining based flow cytometry; assay type: functional, organism-based
# Candida albicans [22] = assay: Antifungal activity against Candida albicans ATCC 90028 assessed as planktonic growth inhibition at 10.37 uM after 48 hrs by M27-A3 protocol based method relative to control; assay type: functional; conditions: ATCC 90028, 48 h, read-out: GI
# [23] = Selectivity index, ratio of CC50 for African green monkey Vero cells to IC50 for Candida albicans ATCC 90028; assay type: toxicity; conditions: read-out: Ratio CC50/IC50
# [24] = Toxicity in Galleria mellonella larvae assessed as movement melanization at 41.47 uM measured after 48 hrs (reference value: 0%)
# Candida albicans [25] = assay: Induction of Candida albicans ATCC 90028 internalization in mouse RAW264.7 cells assessed as reduction in fungus-induced cell damage by measuring live and early apoptotic cells at 41.47 uM after 2 hrs acridine orange/ethidium bromide staining based confocal scanning microscopic analysis; assay type: functional, organism-based
# Candida albicans [26] = assay: Antifungal activity against Candida albicans ATCC 90028 assessed as reduction in cell growth after 48 to 72 hrs by M27-A3 protocol based method; assay type: functional
# [27] = Toxicity in Galleria mellonella larvae assessed as cocoon formation at 41.47 uM measured after 48 hrs (reference value: 100 +/- 0%)
# Candida albicans [28] = assay: Induction of reactive oxygen species generation in Candida albicans ATCC 90028 assessed as ROS level at 41.47 uM after 18 hrs by DCFDA probe based flow cytometry (reference value: 0.3%); assay type: functional
compound,measurement,setting,value
Fc1ccc(C2CCCN2CCCn2nnc(-c3ccc(Cl)cc3)n2)cc1 (stereo not drawn),inhibition of growth at 2.59 µM,Candida albicans [1],99.5%
same,Activity,[2],80%
same,inhibition of growth at 20.73 µM,Candida albicans [3],98.9%
same,MIC,Candida albicans [4],20.7 µM
same,"survival at 120 h, 41.47 µM",[5],83%
same,inhibition of growth at 1.3 µM,Candida albicans [6],99.2%
same,inhibition of growth at 41.47 µM,Candida albicans [7],99%
same,inhibition of growth at 5.18 µM,Candida albicans [8],99.4%
same,pIC50,Candida albicans [9],4.98
same,Activity,[10],0%
same,inhibition of growth at 0.16 µM,Candida albicans [11],99.4%
same,inhibition of growth at 0.65 µM,Candida albicans [12],99.4%
same,inhibition of growth at 0.32 µM,Candida albicans [13],99.4%
same,Activity,[14],60%
same,inhibition at 41.47 µM,Candida albicans [15],> 95%
same,inhibition of growth at 0.08 µM,Candida albicans [16],99.4%
same,Activity,[17],13%
same,"survival at 48 h, 41.47 µM",[18],100%
same,"survival at 18 h, 41.47 µM",[19],100%
same,log(activity),Candida albicans [20],-0.2
same,Activity,Candida albicans [21],Active
same,inhibition of growth at 10.37 µM,Candida albicans [22],99.1%
same,selectivity ratio,[23],2
same,Activity,[24],0%
same,Activity,Candida albicans [25],Active
same,MIC,Candida albicans [26],10.4 µM
same,Activity,[27],80%
same,Activity,Candida albicans [28],12 - 16%
